Assay [1] deals with T1, RNase A (Bos taurus, UniProt P61823).
T1 sequence (P61823 27-150): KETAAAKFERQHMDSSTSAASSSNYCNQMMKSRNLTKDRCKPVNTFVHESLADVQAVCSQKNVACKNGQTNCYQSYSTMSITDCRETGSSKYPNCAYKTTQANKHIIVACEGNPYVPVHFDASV
Briefly: RNase activity test kit, modified Taq-man RNA probe analysis (ab273299). Set-up: purchased Abcam ab273299. The conditions noted are these: inhibitor 1 μM; after 60 minutes; positive control (no inhibitor) = 100%. Type of assay: biochemical. Here is the method: The activity of RNase A, which degrades RNA, was evaluated using specially designed RNA probes. This RNase A analysis was performed using a commercial RNase activity test kit based on a modified Taq-man probe analysis (ab273299) from Abcam (Cambridge, UK). To compare inhibitory activity, three synthetic peptides (peptide-1, peptide-2, peptide-3) and three expressed Fv-antibodies (Fv-1, Fv-2, and Fv-3) were compared using two types of commercially available RNase inhibitors from Biofact™ (Daejeon, South Korea) and two types of RNaseOUT™ from Thermofisher (USA). The probes for the RNase inhibition analysis contained RNA probes with fluorescent dyes and quenching materials at each end of the RNA sequence. […] To estimate the RNase A inhibitory activity by the three synthesized peptides, each peptide was treated at a concentration of 1 μM using the analysis kit, and RNase activity was measured. The positive control was prepared to have an RNase reaction without an inhibitor, and the negative control was prepared to have an RNase reaction without the RNA probe. […] The RNase A inhibitory activity of the three synthesized peptides was analyzed after treating each peptide at a concentration range of 100 μM to 1 μM in the assay kit. […] The RNase A inhibitory activity of the three expressed Fv-antibodies was analyzed after treating each peptide at a concentration range of 100 μM to 1 μM in the analysis kit.
The activity of RNase A, which degrades RNA, was evaluated using specially designed RNA probes. This RNase A analysis was performed using a commercial RNase activity test kit based on a modified Taq-man probe analysis (ab273299) from Abcam (Cambridge, UK). For the comparison of inhibitory activity, three synthetic peptides (Peptide-1, Peptide-2, Peptide-3) and three expressed Fv-antibodies (Fv-1, Fv-2, and Fv-3) were compared using two types of commercially available RNase inhibitors from Biofact™ (Daejeon, South Korea) and two types of RNaseOUT™ from Thermofisher (USA). The probes for the RNase inhibition analysis contain RNA probes with fluorescent dyes and fluorescent quenchers at each end of the RNA nucleotide sequence.
To estimate the RNase A inhibitory activity of the three synthesized peptides, each peptide was treated at a concentration of 1 μM using an assay kit, and the RNase activity was evaluated. The positive control was prepared to have an RNase reaction without the inhibitor, while the negative control was prepared to have an RNase reaction without the RNA probe.
The RNase A inhibitory activity of the three synthesized peptides was analyzed after treating each peptide at a concentration range of 100 μM to 1 μM with the RNase A from the assay kit.

Assay [2] deals with T1, RNase A. Briefly: RNA cleavage assay with total RNA from HeLa cells, agarose gel imaging. Type of assay: biochemical, bovine. Set-up: Ribonuclease A (Type II-A) from bovine pancreas; purchased Sigma-Aldrich Korea; host or cells: bovine pancreas. To be noted: RNase 0.7 μg/ml, agarose gel image analysis, read-out: IC50 for RNase A activity inhibition. Here is the method: The analysis of RNase inhibitory activity of Fv antibodies and synthetic peptides was performed using RNA samples extracted from HeLa cells as follows: (1) Mixing the RNA sample extracted from HeLa cells (600 ng) with 87.5 nM-5.6 μM under conditions of 37° C. for 30 minutes, (2) Electrophoresis on a 1% agarose gel at 90 V for 40 minutes. The estimation of RNase inhibitory activity was carried out by gel imaging of the cleaved RNA using a ChemiDoc XPS (Bio-Rad, CA, USA).
(§1) Using RNA samples extracted from HeLa cells, the RNase inhibitory activity of the synthesized peptides was estimated. The RNase inhibitory activity was assessed using agarose gel imaging of the cleaved RNA. To optimize the RNase concentration for the RNase inhibition assay, total RNA was treated with RNase A (600 ng), with RNase A concentrations ranging from 5.7 ng/ml to 3.6 μg/ml, and the cleaved RNA bands were observed after treatment with ETBR (ethidium bromide). […] The RNase concentration for inhibition analysis was determined to be 0.7 μg/ml, with RNase concentrations above 3.6 μg/ml. The inhibition analysis was performed by mixing total RNA from HeLa cells with RNase (0.7 μg/ml) and Fv-antibody at a concentration of 10 μM, resulting in the observation that the entire RNA was completely cleaved into small RNA bands in the absence of the Fv-antibody. […] The optimal concentration of the Fv-antibody for RNase inhibition was determined by the cleavage reaction with total RNA in the concentration range of 87.5 nM to 5.6 μM for Fv-antibodies (Fv-1, Fv-2, Fv-3).
The analysis of RNase inhibitory activity of Fv antibodies and synthetic peptides was performed using RNA samples extracted from HeLa cells as follows: (1) A mixture of RNA samples extracted from HeLa cells (600 ng) was prepared at concentrations of 87.5 nM-5.6 μM and incubated at 37° C. for 30 minutes; (2) Electrophoresis was conducted in a 1% agarose gel under 90 V for 40 minutes. The estimation of RNase inhibitory activity was carried out by gel imaging of the cleaved RNA using a ChemiDoc XPS (Bio-Rad, CA, USA).
as §1, with “the” for “the concentration”

This is an account of results in patent US20260217863A1, “ANTIBODY OR PEPTIDE BINDING SPECIFICALLY TO RNASE A, IMMUNOASSAY DEVICE AND METHOD FOR DETECTING RNASE A, AND METHOD FOR COLLECTING RNASE A” (UIF (University Industry Foundation), Yonsei University, priority 2022, published 2026).

With Inhibitor-1 [reference compound], the “relative inhibition level / reduction of RNase A activity” value at RNase A [1] amounted to 35.8%. Further, at RNase A [2], the IC50 (in general, the concentration at which inhibition is half-maximal) is 257 nM.

With Inhibitor-2 [reference compound], at RNase A [1], the “relative inhibition level / reduction of RNase A activity” value came out at 27.2%. Besides, the IC50 at RNase A [2] was 381 nM.
